Test results: PMC12860872, “Preclinical evaluation of DOTAGA.Glu.(FAPI)2 and DO3A.Glu.(FAPI)2 as theranostics with human dosimetry extrapolation to lutetium-177 and terbium-161 analogs” (European Journal of Nuclear Medicine and Molecular Imaging, 2025)
“And” between values parts separate entries of the source, which are not always exact repeats. Equal entries are not always repeated.

What was measured:
[1] = system: PC3-mice; assay: Biodistribution in PC3-mice incl. blocking; assay type: in vivo, mouse; conditions: PC3-mice
Method: Male athymic Balb/C nude mice (6 weeks/20–25 g) were implanted with PC3 cells (3.5 × 10^6/100 µL PBS) into their right shoulder to develop tumors. The animals were used for biodistribution and PET/SPECT/CT imaging studies, once tumors reached 250–300 mm^3.
All mice were euthanized with intraperitoneal injection of pentobarbital (150 mg/kg), and selected organs were dissected, weighed, and measured for radioactivity using a gamma-counter. Results are expressed as % injected activity per gram tissue (% I.A./g), presented as mean ± SD (n = 3–4).

[2] = target: T1, FAP (Homo sapiens, UniProt Q12884); assay: Saturation binding on FAP+ CAFs; conditions: listed as 68/natGa-DO3A.Glu.(FAPI)2
T1 construct: the CAF cells overexpressing FAP were seeded at a density of 0.8-1 million cells per well; host or cells: hTERT PF179T prostate cancer-associated fibroblasts
T1 sequence (Q12884 1-760): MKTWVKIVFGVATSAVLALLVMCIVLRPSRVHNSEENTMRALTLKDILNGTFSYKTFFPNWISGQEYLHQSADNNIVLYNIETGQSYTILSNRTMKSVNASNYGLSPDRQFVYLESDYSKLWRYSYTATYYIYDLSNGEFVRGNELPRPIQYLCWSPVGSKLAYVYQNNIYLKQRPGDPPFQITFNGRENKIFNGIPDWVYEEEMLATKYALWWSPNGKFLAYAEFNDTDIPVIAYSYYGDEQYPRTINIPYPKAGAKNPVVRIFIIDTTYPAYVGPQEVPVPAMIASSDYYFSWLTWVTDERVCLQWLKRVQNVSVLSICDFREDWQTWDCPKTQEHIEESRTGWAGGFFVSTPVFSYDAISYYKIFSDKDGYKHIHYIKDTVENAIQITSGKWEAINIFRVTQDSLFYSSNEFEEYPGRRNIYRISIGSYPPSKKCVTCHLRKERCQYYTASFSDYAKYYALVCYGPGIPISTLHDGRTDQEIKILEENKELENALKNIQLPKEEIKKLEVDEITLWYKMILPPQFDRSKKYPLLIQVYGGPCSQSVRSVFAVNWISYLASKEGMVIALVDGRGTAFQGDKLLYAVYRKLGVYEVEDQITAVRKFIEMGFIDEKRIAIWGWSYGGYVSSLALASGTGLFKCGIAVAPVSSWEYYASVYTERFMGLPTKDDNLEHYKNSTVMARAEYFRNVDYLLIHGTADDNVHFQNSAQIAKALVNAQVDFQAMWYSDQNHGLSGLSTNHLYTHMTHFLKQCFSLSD
Method: For receptor saturation studies, FAP^+ CAFs were incubated with 0.1 to 10 nM of the radioligands. For internalization studies, approximately 2.5 pmol of the radioligands were added to CAFs followed by incubation for 15, 30, 60, 90, 120, 180 and 240 min for the ^68Ga-labeled or 30, 60, 120, 240 and 360 min for the ^177Lu-labeled radioligands at 37 °C, 5% CO2. For the externalization studies, approximately 2.5 pmol of the ^177Lu-labeled radioligands were added to CAFs followed by incubation for 2 h at 37 °C, 5% CO2. The amount of externalized activity was measured at 0, 10, 20, 30, 60, 120, 240, and 1440 min (Supplemental Data).
For receptor saturation analysis, the CAF cells overexpressing FAP were seeded at a density of 0.8-1 million cells per well in 6-well plates, pre-coated with BME (Cultrex Reduced Growth Factor Basement Membrane Extract, RGF BME, R&D System, Minneapolis, USA) to enhance cell attachment. The cells were incubated overnight with medium (EMEM supplemented and containing 10% FBS, 100 U/mL penicillin and 100 μg/mL streptomycin). The next day, the medium was removed and the cells were incubated for 30 minutes at 37 °C, with 0.8 mL of fresh medium. Afterwards, the plates were placed on ice for 30 minutes followed by incubation with increasing concentrations of ^68/natGa- and ^177/natLu-labelled DOTAGA.Glu.(FAPI)2 and DO3A.Glu.( FAPI)2 (0.1-10 nM final concentration in the wells). After the addition of the radioligands, the cells were incubated for 120 minutes at 4 °C. Non-specific binding was determined in the presence of UAMC1110 at a final concentration of 1 μM. After the completion of the incubation, the cells were washed twice with ice-cold PBS, followed by solubilization with 1 M NaOH. The cell-associated radioactivity was measured using a gamma-counter. Specific binding was plotted against the total molar concentration of the added radiotracer. The Kd values and the concentration of the radioligand required to saturate the receptors (Bmax) were determined by nonlinear regression using GraphPad (Prism 8 Graph Pad Software, San Diego, CA). For all the cell studies the values are normalized for 1x10^6 cells per well and all data are from two independent experiments with triplicates in each experiment.

[3] = Blocking 1h (20 nmol unlabeled precursor)

Structure (SMILES): N#C[C@@H]1CC(F)(F)CN1C(=O)CNC(=O)c1ccnc2ccc(OCCCCNC(=O)CC[C@H](NC(=O)CN3CCN(CC(=O)[O-])CCN(CC(=O)[O-])CCN(CC(=O)[O-])CC3)C(=O)NCCCCOc3ccc4nccc(C(=O)NCC(=O)N5CC(F)(F)C[C@H]5C#N)c4c3)cc12.[68Ga+3] [[^68Ga]Ga-DO3A.Glu.(FAPI)2]
- Uptake in Adrenal ([1]; 1 h p.i.): 3.6±1.1 %I.A./g
- Uptake in Blood ([1]; 1 h p.i.): 2±0.1 %I.A./g
- Uptake in Bone ([1]; 1 h p.i.): 5±3.1 %I.A./g
- Uptake in Gallbladder ([1]; 1 h p.i.): 2.3±1.8 %I.A./g
- Uptake in Heart ([1]; 1 h p.i.): 1±0.1 %I.A./g
- Uptake in Intestine ([1]; 1 h p.i.): 0.9±0.2 %I.A./g
- Uptake in Kidney ([1]; 1 h p.i.): 6.7±1.7 %I.A./g
- Uptake in Liver ([1]; 1 h p.i.): 4.2±1.2 %I.A./g
- Uptake in Lung ([1]; 1 h p.i.): 3.8±1 %I.A./g
- Uptake in Muscle ([1]; 1 h p.i.): 2±0.03 %I.A./g
- Uptake in Pancreas ([1]; 1 h p.i.): 1.8±0.1 %I.A./g
- Uptake in Salivary glands ([1]; 1 h p.i.): 6.4±0.5 %I.A./g
- Uptake in Spleen ([1]; 1 h p.i.): 1.3±0.3 %I.A./g
- Uptake in Stomach ([1]; 1 h p.i.): 0.9±0.1 %I.A./g
- Uptake in Tumor ([1]; 1 h p.i.): 19±2.4 %I.A./g
- Uptake in Adrenal ([1]; 2 h p.i.): 2.5±0.8 %I.A./g
- Uptake in Blood ([1]; 2 h p.i.): 2.2±0.1 %I.A./g
- Uptake in Bone ([1]; 2 h p.i.): 6.3±1 %I.A./g
- Uptake in Gallbladder ([1]; 2 h p.i.): 3.5±1.8 %I.A./g
- Uptake in Heart ([1]; 2 h p.i.): 0.8±0.03 %I.A./g
- Uptake in Intestine ([1]; 2 h p.i.): 1±0.2 %I.A./g
- Uptake in Kidney ([1]; 2 h p.i.): 4.4±0.8 %I.A./g
- Uptake in Liver ([1]; 2 h p.i.): 3.3±0.9 %I.A./g
- Uptake in Lung ([1]; 2 h p.i.): 2.5±0.6 %I.A./g
- Uptake in Muscle ([1]; 2 h p.i.): 1.3±0.3 %I.A./g
- Uptake in Pancreas ([1]; 2 h p.i.): 1.7±0.1 %I.A./g
- Uptake in Salivary glands ([1]; 2 h p.i.): 5.2±0.1 %I.A./g
- Uptake in Spleen ([1]; 2 h p.i.): 1.6±0.4 %I.A./g
- Uptake in Stomach ([1]; 2 h p.i.): 0.9±0.1 %I.A./g
- Uptake in Tumor ([1]; 2 h p.i.): 19.6 ± 0.7 %I.A./g
- Uptake in Adrenal ([1]; 3 h p.i.): 2.4±0.8 %I.A./g
- Uptake in Blood ([1]; 3 h p.i.): 2.2±0.1 %I.A./g
- Uptake in Bone ([1]; 3 h p.i.): 5.8±1 %I.A./g
- Uptake in Gallbladder ([1]; 3 h p.i.): 1.7±0.9 %I.A./g
- Uptake in Heart ([1]; 3 h p.i.): 0.7±0.1 %I.A./g
- Uptake in Intestine ([1]; 3 h p.i.): 0.9±0.2 %I.A./g
- Uptake in Kidney ([1]; 3 h p.i.): 3.4±0.4 %I.A./g
- Uptake in Liver ([1]; 3 h p.i.): 2.8±0.3 %I.A./g
- Uptake in Lung ([1]; 3 h p.i.): 1.7±0.3 %I.A./g
- Uptake in Muscle ([1]; 3 h p.i.): 1.1±0.1 %I.A./g
- Uptake in Pancreas ([1]; 3 h p.i.): 1.4±0.1 %I.A./g
- Uptake in Salivary glands ([1]; 3 h p.i.): 5±1.4 %I.A./g
- Uptake in Spleen ([1]; 3 h p.i.): 1.4±0.3 %I.A./g
- Uptake in Stomach ([1]; 3 h p.i.): 0.7±0.02 %I.A./g
- Uptake in Tumor ([1]; 3 h p.i.): 17.5 ± 1.1 %I.A./g
- Uptake in Adrenal [1, 3]: 0.1±0.6 %I.A./g
- Uptake in Blood [1, 3]: 2.3±0.5 %I.A./g
- Uptake in Bone [1, 3]: 0.3±0.1 %I.A./g
- Uptake in Gallbladder [1, 3]: 3.5±0.3 %I.A./g
- Uptake in Heart [1, 3]: 0.7±0.2 %I.A./g
- Uptake in Intestine [1, 3]: 0.8±0.3 %I.A./g
- Uptake in Kidney [1, 3]: 6.2±1.2 %I.A./g
- Uptake in Liver [1, 3]: 3.2±0.7 %I.A./g
- Uptake in Lung [1, 3]: 2.1±0.4 %I.A./g
- Uptake in Muscle [1, 3]: 0.3±0.01 %I.A./g
- Uptake in Pancreas [1, 3]: 0.4±0.1 %I.A./g
- Uptake in Salivary glands [1, 3]: 0.7±0.1 %I.A./g
- Uptake in Spleen [1, 3]: 1±0.1 %I.A./g
- Uptake in Stomach [1, 3]: 0.8±0.3 %I.A./g
- Uptake in Tumor [1, 3]: 1.3±0.2 %I.A./g
- Blood pool retention ([1]; over 3 h): around 2 %I.A./g
- tumor uptake ([1]; sustained up to 3 h p.i.): 18–19 %I.A./g
- Kd ([2]; 0.1 to 10 nM radioligand): 0.9 nM and 0.89 nM
- Bmax [2]: 0.5 ± 0.05 nM and 0.54 ± 0.05 nM
